Experiments:
[1] = system: 786-O; assay: Stability in the presence of human cell lines (786-O); assay type: in vitro ADME; settings: Kidney, 24 hours
Method: (§1) Residual activity was calculated as follows: […]

[2] = system: HT-1376; assay: Stability in the presence of human cell lines (HT-1376); assay type: in vitro ADME; settings: HT-1376, Bladder; 24 hours
Method: as §1

[3] = biological target: HEK-FAP cells (HEK293 cells engineered to express the human FAP) (Homo sapiens (Human), UniProt Q12884); assay: LigandTracer assay with 111In-labeled compounds; assay type: binding; settings: 111In-labeled compound
Method: HEK293 cells (human embryonic kidney cells) were engineered to express the human FAP. […] Cell concentrations were adjusted to 3×10^5 mL^−1, and 3.000 μL of the suspension was dispensed into a poly-lysine-coated, clear cell dish (10 cm). Approximately 24 hours after re-seeding, the medium was replaced by assay medium (Ham's medium with 20 mM HEPES) containing 1% FCS. The dish was placed in the LigandTracer® device and a baseline measurement was obtained using the LigandTracer® Control software (version 2.4). […] To determine the dissociation rate (kd) the cells were washed and subsequently incubated with fresh assay medium for several hours.

[4] = system: AsPC-1; assay: Stability in the presence of human cell lines (AsPC-1); assay type: in vitro ADME; settings: AsPC-1, Pancreas; 24 hours
Method: as §1

[5] = system: HEC-265; assay: Stability in the presence of human cell lines (HEC-265); assay type: in vitro ADME; settings: HEC-265, Endometrium; 24 hours
Method: as §1

[6] = system: U2-OS; assay: Stability in the presence of human cell lines (U2-OS); assay type: in vitro ADME; settings: Sarcoma (Bone), 24 hours
Method: as §1

[7] = system: WI-38; assay: Stability in the presence of human cell lines (WI-38); assay type: in vitro ADME; settings: WI-38, Fibroblast (Lung); 24 hours
Method: as §1

[8] = system: HT-29 cells; assay: Stability in the presence of tumor cells (HT-29), FAP IC50 of supernatants; assay type: in vitro ADME, human
Method: The stability of exemplary compounds was further assessed in the presence of a variety of human cell lines from different tissue origins. […] Compounds were diluted in DMEM without phenol red (Biochrom, #F0475) including 2 mM L-glutamine. 400 μL of a 10 μM solution of the test compound was incubated for 24 hours at 37° C. and 5% CO2 in the presence of cells as well as in control wells (without cells) of the same 24-well plate. IC50/pIC50 determination of the supernatants was performed as described above.

[9] = system: U87MG; assay: Stability in the presence of human cell lines (U87MG); assay type: in vitro ADME; settings: Brain, 24 hours
Method: as §1

[10] = system: A549; assay: Stability in the presence of human cell lines (A549); assay type: in vitro ADME; settings: A549, Lung; 24 hours
Method: as §1

[11] = biological target: Human recombinant FAP (Homo sapiens (Human), UniProt Q12884); assay: Surface plasmon resonance assay (Biacore T200, SCK); assay type: binding; settings: SPR dissociation half-life
How it was run: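 Anti-FAP antibody amine-coupled to CM5 chip (7000 RU), human recombinant FAP captured at 20 μg/mL; compounds run in single-cycle kinetics at 25° C in HBST with 0.1% DMSO, top concentration 500 nM. Reference-cell and buffer-run drift subtraction; kon, koff, KD, t1/2 from 1:1 Langmuir fit, reported as pKD.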

[12] = system: WM-266-4; assay: Stability in the presence of human cell lines (WM-266-4); assay type: in vitro ADME; settings: WM-266-4, Skin; 24 hours
Method: as §1

[13] = system: C4-2; assay: Stability in the presence of human cell lines (C4-2); assay type: in vitro ADME; settings: C4-2, Prostate; 24 hours
Method: as §1

[14] = system: MDA-MB-436; assay: Stability in the presence of human cell lines (MDA-MB-436); assay type: in vitro ADME; settings: MDA-MB-436, Breast; 24 hours
Method: as §1

[15] = system: K-562; assay: Stability in the presence of human cell lines (K-562); assay type: in vitro ADME; settings: K-562, Blood; 24 hours
Method: as §1

[16] = system: SCOV-3; settings: SCOV-3, Ovarian; 24 hours
Method: Cells were cultured in McCoys's 5A modified medium (Biochrom, #F1015) including 10% fetal bovine serum (FBS), 2 mM L-glutamine, 100 U/ml penicillin and 100 μg/mL streptomycin (growth medium). […] 1 mL of the cell suspension were seeded in 24-well plates and incubated overnight at 37° C. and 5% CO2. The next day, cells were washed twice and growth medium was exchanged against DMEM without phenol red (Biochrom, #F0475) including 2 mM L-glutamine. Test compound was diluted in DMEM without phenol red (Biochrom, #F0475) including 2 mM L-glutamine. 400 μL of a 10 μM solution of the test compound was incubated for 24 hours at 37° C. and 5% CO2 in the presence of cells as well as in control wells (without cells) of the same 24-well plate.
25 μL of a 30 μM substrate solution, diluted in assay buffer, was added. All solutions were equilibrated at 37° C. prior to use. […] RFU/sec was calculated by SoftMax Pro software and plotted against test compound concentration. Four parameter logistic (4PL) curve fitting and IC50/pIC50 calculations were performed using GraphPad Prism 9.1 software. Residual activity was calculated as follows: […]
The stability of exemplary compounds was further assessed in the presence of a variety of human cell lines from different tissue origins. […] Residual activity was calculated as follows: […]

Sequence of Human recombinant FAP (Q12884 whole entry): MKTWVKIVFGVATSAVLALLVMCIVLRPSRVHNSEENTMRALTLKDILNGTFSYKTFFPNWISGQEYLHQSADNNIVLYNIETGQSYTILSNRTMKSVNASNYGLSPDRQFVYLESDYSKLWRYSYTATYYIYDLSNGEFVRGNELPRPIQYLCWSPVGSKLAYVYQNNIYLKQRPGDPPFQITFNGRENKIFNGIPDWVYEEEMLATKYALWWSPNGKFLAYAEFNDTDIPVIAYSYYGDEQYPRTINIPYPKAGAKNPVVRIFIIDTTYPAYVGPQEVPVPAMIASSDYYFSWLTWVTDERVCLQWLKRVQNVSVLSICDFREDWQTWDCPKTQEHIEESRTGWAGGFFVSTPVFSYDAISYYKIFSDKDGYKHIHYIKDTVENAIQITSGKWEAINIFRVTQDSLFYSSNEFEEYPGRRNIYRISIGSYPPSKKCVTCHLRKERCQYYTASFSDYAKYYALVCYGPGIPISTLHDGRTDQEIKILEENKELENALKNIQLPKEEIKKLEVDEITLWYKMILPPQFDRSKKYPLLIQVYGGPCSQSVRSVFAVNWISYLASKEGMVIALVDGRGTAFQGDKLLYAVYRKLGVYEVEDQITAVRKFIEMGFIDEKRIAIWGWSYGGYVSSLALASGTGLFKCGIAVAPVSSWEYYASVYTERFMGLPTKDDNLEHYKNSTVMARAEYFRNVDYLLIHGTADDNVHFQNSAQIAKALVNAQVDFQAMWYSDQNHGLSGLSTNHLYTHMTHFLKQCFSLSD

N#C[C@@H]1CC(F)(F)CN1C(=O)CNC(=O)c1ccnc2ccc(OCCCN3CCN(C(=O)CN4CCN(CC(=O)O)CCN(CC(=O)O)CCN(CC(=O)O)CC4)CC3)cc12 [Compound 3BP-2929, reference compound]
Residual Stability (%) [1]: 85%
Residual Stability (%) [2]: 10%
HL (half-life) [3]: 4.6 ± 2.37 h
Residual Stability (%) [4]: 35%
Residual Stability (%) [5]: 65%
Residual Stability (%) [6]: 30%
Residual Stability (%) [7]: 26%
pIC50 (incubation in cell medium w/o HT-29) ([8]; 10 μM compound, 24 hours at 37° C. in control wells without cells, supernatant tested on recombinant human FAP): 8.7
pIC50 (incubation in the presence of HT-29 cells) ([8]; 10 μM compound, 24 hours at 37° C. with HT-29 cells, supernatant tested on recombinant human FAP): 7.9
Residual Stability (%) ([8]; HT-29, Intestine, 24 hours): 14%
stability in the presence of HT-29 cells (in words) ([8]; HT-29 cells): unstable
Residual activity after incubation with HT-29 cells for 24 hours (%) ([8]; HT-29 cells, 24 hours): 16%
Residual Stability (%) [9]: 45%
Residual Stability (%) [10]: 20%
HL [min] (Biacore) [11]: 85 min
Residual Stability (%) [12]: 70%
Residual Stability (%) [13]: 19%
Residual Stability (%) [14]: 17%
Residual Stability (%) [15]: 70%
Residual Stability (%) [16]: 4%

Source: patent US20240335569A1, “FIBROBLAST ACTIVATION PROTEIN INHIBITORS AND USE THEREOF” (3 B PHARMACEUTICALS GMBH, priority 2021, published 2024)
